Source: patent US20220177508A1, “C10-Cyclic Substituted 13-Membered Macrolides and Uses Thereof” (Zikani Therapeutics, Inc., priority 2018, published 2022)
Converted amounts (≈) assume the structure as drawn.

Legend:
Format in all cases: cell-based
[1] = system: A. baumannii MP-15; assay: Broth dilution MIC determination (CLSI), A. baumannii MP-15; conditions: Acinetobacter baumannii, MP15; strain MP-15, broth dilution; read-out: MIC A. baumanii MP-15
[2] = system: S. aureus MP-12; assay: Broth dilution MIC determination (CLSI), S. aureus MP-12; conditions: Staphylococcus aureus, MP12; strain MP-12, broth dilution
[3] = system: K. pneumoniae MP-546; assay: Broth dilution MIC determination (CLSI), K. pneumoniae MP-546; conditions: Klebsiella pneumoniae, MP546; strain MP-546, broth dilution
[4] = system: P. aeruginosa MP-3; assay: Broth dilution MIC determination (CLSI), P. aeruginosa MP-3; conditions: Pseudomonas aeruginosa, MP3; strain MP-3, broth dilution
[5] = system: K. pneumoniae MP-648; assay: Broth dilution MIC determination (CLSI), K. pneumoniae MP-648; conditions: Klebsiella pneumoniae, MP648; strain MP-648, broth dilution
[6] = system: E. coli MP-4; assay: Broth dilution MIC determination (CLSI), E. coli MP-4; conditions: Escherichia coli, MP4; strain MP-4, broth dilution; read-out: MIC E. coli MP-4

CO[C@]1(C)C[C@@H](C)CN(C)[C@@H](C2CCN(C(C)[C@H]3COC(C)(C)O3)CC2)COC(=O)C(C)(C)C(=O)[C@H](C)[C@H]1O[C@@H]1O[C@H](C)C[C@H](N(C)C)[C@H]1O (mixture of isomers) [Compound 172, (3S,6R,8R,9R,10R)-3-(1-(1-((S)-2,2-dimethyl-1,3-dioxolan-4-yl)ethyl)piperidin-4-yl)-9-(((2S,3R,4S,6R)-4-(dimethylamino)-3-hydroxy-6-methyltetrahydro-2H-pyran-2-yl)oxy)-8-methoxy-4,6,8,10,12,12-hexamethyl-1-oxa-4-azacyclotridecane-11,13-dione]
MIC [1]: > 32 µg/mL | MIC [2]: 4 to 32 µg/mL (≈ 5.62 to 44.9 µM) | MIC [3]: < 4 µg/mL | MIC [4]: > 32 µg/mL | MIC [5]: < 4 µg/mL | MIC [6]: < 4 µg/mL

CO[C@]1(C)C[C@@H](C)CN(C)[C@H](C2CN(Cc3ccn(C)n3)C2)COC(=O)C(C)(C)C(=O)[C@H](C)[C@H]1O[C@@H]1O[C@H](C)C[C@H](N(C)C)[C@H]1O [Compound 16, (3R,6R,8R,9R,10R)-9-(((2S,3R,4S,6R)-4-(dimethylamino)-3-hydroxy-6-methyltetrahydro-2H-pyran-2-yl)oxy)-8-methoxy-4,6,8,10,12,12-hexamethyl-3-(1-((1-methyl-1H-pyrazol-3-yl)methyl)azetidin-3-yl)-1-oxa-4-azacyclotridecane-11,13-dione]
MIC [1]: > 32 µg/mL | MIC [2]: 4 to 32 µg/mL (≈ 6.16 to 49.2 µM) | MIC [3]: 4 to 32 µg/mL (≈ 6.16 to 49.2 µM) | MIC [4]: > 32 µg/mL | MIC [5]: 4 to 32 µg/mL (≈ 6.16 to 49.2 µM) | MIC [6]: < 4 µg/mL

CO[C@]1(C)C[C@@H](C)CN(C)[C@H]([C@H]2C[C@@H](N(C)CC3CC3)C2)COC(=O)C(C)(C)C(=O)[C@H](C)[C@H]1O[C@@H]1O[C@H](C)C[C@H](N(C)C)[C@H]1O [Compound 18, (3R,6R,8R,9R,10R)-3-((1s,3S)-3-((cyclopropylmethyl)(methyl)amino)cyclobutyl)-9-(((2S,3R,4S,6R)-4-(dimethylamino)-3-hydroxy-6-methyltetrahydro-2H-pyran-2-yl)oxy)-8-methoxy-4,6,8,10,12,12-hexamethyl-1-oxa-4-azacyclotridecane-11,13-dione]
MIC [1]: > 32 µg/mL | MIC [2]: > 32 µg/mL | MIC [3]: 4 to 32 µg/mL (≈ 6.27 to 50.2 µM) | MIC [4]: > 32 µg/mL | MIC [5]: 4 to 32 µg/mL (≈ 6.27 to 50.2 µM) | MIC [6]: < 4 µg/mL

CO[C@]1(C)C[C@@H](C)CN(C)[C@H]([C@@H]2CCN(C)C2)COC(=O)C(C)(C)C(=O)[C@H](C)[C@H]1O[C@@H]1O[C@H](C)C[C@H](N(C)C)[C@H]1O [Compound 182, (3R,6R,8R,9R,10R)-9-(((2S,3R,4S,6R)-4-(dimethylamino)-3-hydroxy-6-methyltetrahydro-2H-pyran-2-yl)oxy)-8-methoxy-4,6,8,10,12,12-hexamethyl-3-((R)-1-methylpyrrolidin-3-yl)-1-oxa-4-azacyclotridecane-11,13-dione]
MIC [1]: > 32 µg/mL | MIC [2]: > 32 µg/mL | MIC [3]: < 4 µg/mL | MIC [4]: > 32 µg/mL | MIC [6]: < 4 µg/mL

CO[C@]1(C)C[C@@H](C)CN(C)[C@@H](C2CN(C(=O)CN(C)C)C2)COC(=O)C(C)(C)C(=O)[C@H](C)[C@H]1O[C@@H]1O[C@H](C)C[C@H](N(C)C)[C@H]1O [Compound 184, (3S,6R,8R,9R,10R)-9-(((2S,3R,4S,6R)-4-(dimethylamino)-3-hydroxy-6-methyltetrahydro-2H-pyran-2-yl)oxy)-3-(1-(dimethylglycyl)azetidin-3-yl)-8-methoxy-4,6,8,10,12,12-hexamethyl-1-oxa-4-azacyclotridecane-11,13-dione]
MIC [1]: > 32 µg/mL | MIC [2]: 4 to 32 µg/mL (≈ 6.24 to 49.9 µM) | MIC [3]: < 4 µg/mL | MIC [4]: > 32 µg/mL | MIC [6]: < 4 µg/mL

CO[C@]1(C)C[C@@H](C)CN(C)[C@H](c2ccc(-c3cccnc3)cc2)COC(=O)C(C)(C)C(=O)[C@H](C)[C@@H]1O[C@@H]1O[C@@H](C)C[C@H](N(C)C)[C@H]1O [Compound 188]
MIC [1]: > 32 µg/mL | MIC [2]: > 32 µg/mL | MIC [3]: > 32 µg/mL | MIC [4]: > 32 µg/mL | MIC [6]: > 32 µg/mL

CO[C@]1(C)C[C@@H](C)CN(C)[C@@H](C2(CCN(C)CC3CC3)CC2)COC(=O)C(C)(C)C(=O)[C@H](C)[C@H]1O[C@@H]1O[C@H](C)C[C@H](N(C)C)[C@H]1O [Compound 196]
MIC [1]: > 32 µg/mL | MIC [2]: > 32 µg/mL | MIC [4]: > 32 µg/mL | MIC [5]: > 32 µg/mL | MIC [6]: 4 to 32 µg/mL (≈ 6.14 to 49.1 µM)

CO[C@]1(C)C[C@@H](C)CN(C)[C@@H](C2(CCN(C)C(C)=O)CC2)COC(=O)C(C)(C)C(=O)[C@H](C)[C@H]1O[C@@H]1O[C@H](C)C[C@H](N(C)C)[C@H]1O [Compound 197]
MIC [1]: > 32 µg/mL | MIC [2]: > 32 µg/mL | MIC [4]: > 32 µg/mL | MIC [5]: > 32 µg/mL | MIC [6]: 4 to 32 µg/mL (≈ 6.25 to 50 µM)

CO[C@]1(C)C[C@@H](C)CN(C)[C@](C)(C2CCN(C)CC2)COC(=O)C(C)(C)C(=O)[C@H](C)[C@H]1O[C@@H]1O[C@H](C)C[C@H](N(C)C)[C@H]1O [Compound 198]
MIC [1]: > 32 µg/mL | MIC [2]: > 32 µg/mL | MIC [4]: > 32 µg/mL | MIC [5]: > 32 µg/mL | MIC [6]: > 32 µg/mL

CO[C@]1(C)C[C@@H](C)CN(C)[C@@H](C2CCN(C[C@@H](N)CO)CC2)CO[C@@H](O)C(C)(C)C(=O)[C@H](C)[C@H]1O[C@@H]1O[C@H](C)C[C@H](N(C)C)[C@H]1O [Compound 199]
MIC [1]: > 32 µg/mL | MIC [2]: 4 to 32 µg/mL (≈ 6.07 to 48.6 µM) | MIC [3]: < 4 µg/mL | MIC [4]: > 32 µg/mL | MIC [6]: < 4 µg/mL

CO[C@]1(C)C[C@@H](C)CN(C)[C@@H](C2CCN(C[C@H](CO)N(C)C)CC2)CO[C@@H](O)C(C)(C)C(=O)[C@H](C)[C@H]1O[C@@H]1O[C@H](C)C[C@H](N(C)C)[C@H]1O [Compound 200]
MIC [1]: > 32 µg/mL | MIC [2]: 4 to 32 µg/mL (≈ 5.82 to 46.6 µM) | MIC [4]: > 32 µg/mL | MIC [5]: > 32 µg/mL | MIC [6]: 4 to 32 µg/mL (≈ 5.82 to 46.6 µM)

CO[C@]1(C)C[C@@H](C)CN(C)[C@@H](C2CCN(C[C@@H]3COC(=O)N3)CC2)CO[C@@H](O)C(C)(C)C(=O)[C@H](C)[C@H]1O[C@@H]1O[C@H](C)C[C@H](N(C)C)[C@H]1O [Compound 201]
MIC [1]: > 32 µg/mL | MIC [2]: > 32 µg/mL | MIC [4]: > 32 µg/mL | MIC [5]: > 32 µg/mL | MIC [6]: 4 to 32 µg/mL (≈ 5.84 to 46.7 µM)

CO[C@]1(C)C[C@@H](C)CN(C)[C@@H](C2CCN(C[C@@H]3COC(=O)N3C)CC2)CO[C@@H](O)C(C)(C)C(=O)[C@H](C)[C@H]1O[C@@H]1O[C@H](C)C[C@H](N(C)C)[C@H]1O [Compound 202]
MIC [1]: > 32 µg/mL | MIC [2]: > 32 µg/mL | MIC [4]: > 32 µg/mL | MIC [5]: > 32 µg/mL | MIC [6]: 4 to 32 µg/mL (≈ 5.72 to 45.8 µM)

CO[C@]1(C)C[C@@H](C)CN(C)[C@H](C2CN(CC(=O)O)C2)COC(=O)C(C)(C)C(=O)[C@H](C)[C@H]1O[C@@H]1O[C@H](C)C[C@H](N(C)C)[C@H]1O [Compound 203]
MIC [1]: > 32 µg/mL | MIC [2]: > 32 µg/mL | MIC [4]: > 32 µg/mL | MIC [5]: > 32 µg/mL | MIC [6]: 4 to 32 µg/mL (≈ 6.52 to 52.1 µM)

CO[C@]1(C)C[C@@H](C)CN[C@H](c2ccccc2)COC(=O)[C@H](C)C(=O)[C@H](C)[C@H]1O[C@@H]1OC(C)CC(N(C)C)C1O (some centres unmarked) [Compound 204]
MIC [1]: > 32 µg/mL | MIC [2]: > 32 µg/mL | MIC [3]: > 32 µg/mL | MIC [4]: > 32 µg/mL | MIC [6]: > 32 µg/mL

CO[C@]1(C)C[C@@H](C)CN[C@@H](c2ccccc2)COC(=O)[C@H](C)C(=O)[C@H](C)[C@H]1O[C@@H]1OC(C)CC(N(C)C)C1O (some centres unmarked) [Compound 205]
MIC [1]: > 32 µg/mL | MIC [2]: > 32 µg/mL | MIC [3]: > 32 µg/mL | MIC [4]: > 32 µg/mL | MIC [6]: > 32 µg/mL
